Experimental data reported in patent publication EP4745135A1 (Gluetacs Therapeutics (Shanghai) Co., Ltd., priority 2023, dated 2025).

Target: T1, human Cereblon WT GST-tagged protein (Homo sapiens, UniProt Q96SW2)
T1 construct: purchased CISBIO 64BDCRBNPEH
Experiment: CRBN-binding affinity, HTRF (CEREBLON BINDING kit)
Conditions: for IC50: CRBN binding, HTRF, 3 hours at room temperature, read-out: HTRF IC50; for inhibition at 0.5 µM: read-out: Inhibition Rate at 0.5 µM (%); for inhibition at 2 µM: read-out: Inhibition Rate at 2 µM (%)
Protocol: The CEREBLON BINDING kits (specification: 10,000 tests; product number: Catalog # 64BDCRBNPEH; CISBIO company) was used to determine the CRBN binding ability of the compounds to be tested through a HTRF method (homogeneous time-resolved fluorescence). The specific methods are as follows: • 1. […] Specifically, diluent #9 (1X) solution was used as the diluent, and multiple concentration gradients were set. […] Then, 2.5 µL of human Cereblon WT GST-tagged protein solution was added to each well. Finally, 5 µL of the thoroughly mixed Thalidomide-Re reagent and GST Eu antibody working solution were added to each of the aforementioned wells. […] The blank control wells were sequentially added with 2.5 µL of diluent #9 (1X) solution, 2.5 µL of PROTAC binding buffer, and 5 µL of thoroughly mixed Thalidomide-Re reagent and GST Eu antibody working solution. • 4.

T1 sequence (Q96SW2 whole entry): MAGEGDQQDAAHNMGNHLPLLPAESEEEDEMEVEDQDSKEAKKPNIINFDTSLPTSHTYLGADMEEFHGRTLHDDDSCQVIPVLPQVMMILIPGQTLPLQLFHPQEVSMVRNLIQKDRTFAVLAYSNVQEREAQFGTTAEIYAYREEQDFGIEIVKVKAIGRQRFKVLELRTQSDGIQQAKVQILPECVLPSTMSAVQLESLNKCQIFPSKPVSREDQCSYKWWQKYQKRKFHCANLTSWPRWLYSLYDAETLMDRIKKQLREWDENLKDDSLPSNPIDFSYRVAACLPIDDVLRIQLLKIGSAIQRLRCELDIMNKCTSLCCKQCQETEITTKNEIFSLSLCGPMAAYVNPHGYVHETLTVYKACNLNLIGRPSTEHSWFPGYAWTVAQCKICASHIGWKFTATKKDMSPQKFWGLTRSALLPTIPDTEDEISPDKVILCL

Row | IC50 | inhibition at 0.5 µM | inhibition at 2 µM | Structure (SMILES)
1 | < 100 nM | – | – | O=C1CCC(N2Cc3cc(CN4CCc5sccc5C4)ccc3C2=S)C(=O)N1 (stereo not shown) [GT-05093, 3-(5-((6,7-dihydrothieno[3,2-c]pyridin-5(4H)-yl)methyl)-1-thioxoisoindolin-2-yl)piperidine-2,6-dione]
2 | – | 30 to 40% | 60 to 80% | O=C1CCC(N2Cc3c(CN4CCN(c5cccc(Br)c5)CC4)cccc3C2=S)C(=O)N1 (stereo not shown) [GT-08261, 3-(4-((4-(3-bromophenyl)piperazin-1-yl)methyl)-1-thioxoisoindolin-2-yl)piperidine-2,6-dione]
3 | – | 60 to 80% | 80 to 100% | O=C1CCC(N2Cc3cc(CN4CCN(c5ccncc5Br)CC4)ccc3C2=S)C(=O)N1 (stereo not shown) [GT-09236, 3-(5-((4-(3-bromopyridin-4-yl)piperazin-1-yl)methyl)-1-thioxoisoindolin-2-yl)piperidine-2,6-dione]
4 | < 100 nM | – | – | O=C1CCC(N2Cc3cc(CN4CCN(c5nsc6ccccc56)CC4)ccc3C2=S)C(=O)N1 (stereo not shown) [GT-05091, 3-(5-((4-(benzo[d]isothiazol-3-yl)piperazin-1-yl)methyl)-1-thioxoisoindolin-2-yl)piperidine-2,6-dione]
5 | – | 40 to 53% | 80 to 100% | O=C1CCC(N2Cc3cc(CN4CCN(c5ccc(C(F)(F)F)cc5)CC4)ccc3C2=S)C(=O)N1 (stereo not shown) [GT-08239, 3-(1-thioxo-5-((4-(4-(trifluoromethyl)phenyl)piperazin-1-yl)methyl)isoindolin-2-yl)piperidine-2,6-dione]
6 | – | 60 to 80% | 80 to 100% | O=C1CCC(N2Cc3cc(CN4CCN(c5c(F)cncc5Cl)CC4)ccc3C2=S)C(=O)N1 (stereo not shown) [GT-09243, 3-(5-((4-(3-chloro-5-fluoropyridin-4-yl)piperazin-1-yl)methyl)-1-thioxoisoindolin-2-yl)piperidine-2,6-dione]
7 | – | 30 to 40% | 60 to 80% | Cc1ccc(N2CCN(Cc3ccc4c(c3)CN(C3CCC(=O)NC3=O)C4=S)CC2)c(C)c1 (stereo not shown) [GT-08614, 3-(5-((4-(2,4-dimethylphenyl)piperazin-1-yl)methyl)-1-thioxoisoindolin-2-yl)piperidine-2,6-dione]
8 | – | 80 to 100% | 80 to 100% | O=C1CCC(N2Cc3cc(CN4CCN(c5c(Cl)cncc5Cl)CC4)ccc3C2=S)C(=O)N1 (stereo not shown) [GT-09246, 3-(5-((4-(3,5-dichloropyridin-4-yl)piperazin-1-yl)methyl)-1-thioxoisoindolin-2-yl)piperidine-2,6-dione]
9 | – | 60 to 80% | 80 to 100% | Cc1cc2c(N3CCN(Cc4ccc5c(c4)CN(C4CCC(=O)NC4=O)C5=S)CC3)ncnc2s1 (stereo not shown) [GT-09282, 3-(5-((4-(6-methylthieno[2,3-d]pyrimidin-4-yl)piperazin-1-yl)methyl)-1-thioxoisoindolin-2-yl)piperidine-2,6-dione]
10 | – | 80 to 100% | 80 to 100% | O=C1CCC(N2Cc3cc(CN4CCN(c5cnnc(Cl)c5Cl)CC4)ccc3C2=S)C(=O)N1 (stereo not shown) [GT-09255, 3-(5-((4-(5,6-dichloropyridazin-4-yl)piperazin-1-yl)methyl)-1-thioxoisoindolin-2-yl)piperidine-2,6-dione]
11 | – | 60 to 80% | 80 to 100% | O=C1CCC(N2Cc3cc(CN4CCN(c5ncc6ccsc6n5)CC4)ccc3C2=S)C(=O)N1 (stereo not shown) [GT-09303, 3-(5-((4-(thieno[2,3-d]pyrimidin-2-yl)piperazin-1-yl)methyl)-1-thioxoisoindolin-2-yl)piperidine-2,6-dione]
12 | – | 60 to 80% | 80 to 100% | O=C1CCC(N2Cc3cc(CN4CCN(c5ccncc5F)CC4)ccc3C2=S)C(=O)N1 (stereo not shown) [GT-09237, 3-(5-((4-(3-fluoropyridin-4-yl)piperazin-1-yl)methyl)-1-thioxoisoindolin-2-yl)piperidine-2,6-dione]
13 | – | 60 to 80% | 80 to 100% | O=C1CCC(N2Cc3cc(CN4CCN(c5ccnc(Cl)c5Cl)CC4)ccc3C2=S)C(=O)N1 (stereo not shown) [GT-09354, 3-(5-((4-(2,3-dichloropyridin-4-yl)piperazin-1-yl)methyl)-1-thioxoisoindolin-2-yl)piperidine-2,6-dione]
14 | – | 53 to 60% | 80 to 100% | O=C1CCC(N2Cc3c(CN4CCN(c5ncccc5C(F)(F)F)CC4)cccc3C2=S)C(=O)N1 (stereo not shown) [GT-08700, 3-(1-thioxo-4-((4-(3-(trifluoromethyl)pyridin-2-yl)piperazin-1-yl)methyl)isoindolin-2-yl)piperidine-2,6-dione]

The remaining lines, values behind:

Row | Structure (SMILES) | IC50 | inhibition at 0.5 µM | inhibition at 2 µM
15 | Cc1cc(N2CCN(Cc3cccc4c3CN(C3CCC(=O)NC3=O)C4=S)CC2)ccn1 (stereo not shown) [GT-08727, 3-(4-((4-(2-methylpyridin-4-yl)piperazin-1-yl)methyl)-1-thioxoisoindolin-2-yl)piperidine-2,6-dione] | – | 53 to 60% | 80 to 100%
16 | O=C1CCC(N2Cc3cc(CN4CCC(N5CCOc6cc(F)ccc65)CC4)ccc3C2=S)C(=O)N1 (stereo not shown) [GT-09272, 3-(5-((4-(7-fluoro-2,3-dihydro-4H-benzo[b][1,4]oxazin-4-yl)piperidin-1-yl)methyl)-1-thioxoisoindolin-2-yl)piperidine-2,6-dione] | – | 60 to 80% | 80 to 100%
17 | O=C1CCC(N2Cc3cc(CN4CCC(c5cccc6cnccc56)CC4)ccc3C2=S)C(=O)N1 (stereo not shown) [GT-09277, 3-(5-((4-(isoquinolin-5-yl)piperidin-1-yl)methyl)-1-thioxoisoindolin-2-yl)piperidine-2,6-dione] | – | 40 to 53% | 80 to 100%
18 | Cc1nc(N2CCN(Cc3cccc4c3CN(C3CCC(=O)NC3=O)C4=S)CC2)c2c(-c3ccccc3)csc2n1 (stereo not shown) [GT-08921, 3-(4-((4-(2-methyl-5-phenylthieno[2,3-d]pyrimidin-4-yl)piperazin-1-yl)methyl)-1-thioxoisoindolin-2-yl)piperidine-2,6-dione] | – | 30 to 40% | 80 to 100%
19 | Cc1nc(C2CCN(Cc3ccc4c(c3)CN(C3CCC(=O)NC3=O)C4=S)CC2)c2c(-c3ccccc3)csc2n1 (stereo not shown) [GT-09308] | – | 40 to 53% | 80 to 100%
20 | O=C1CCC(N2Cc3c(CN4CCC(C5CCOc6cc(F)ccc65)CC4)cccc3C2=S)C(=O)N1 (stereo not shown) [GT-08854, 3-(4-((4-(7-fluorochroman-4-yl)piperidin-1-yl)methyl)-1-thioxoisoindolin-2-yl)piperidine-2,6-dione] | – | 40 to 53% | 80 to 100%
21 | CC1(C)CC(c2ccc(Cl)cc2)=C(CN2CCN(Cc3cccc4c3CN(C3CCC(=O)NC3=O)C4=S)CC2)CO1 (stereo not shown) [GT-08296, 3-(4-((4-((4-(4-chlorophenyl)-6,6-dimethyl-5,6-dihydro-2H-pyran-3-yl)methyl)piperazin-1-yl)methyl)-1-thioxoisoindolin-2-yl)piperidine-2,6-dione] | – | 40 to 53% | 60 to 80%
22 | O=C1CCC(N2Cc3c(CN4CCN(c5nc6c(c(N7CCNCC7)n5)SCC6)CC4)cccc3C2=S)C(=O)N1 (stereo not shown) [GT-09035, 3-(4-((4-(4-(piperazin-1-yl)-6,7-dihydrothieno[3,2-d]pyrimidin-2-yl)piperazin-1-yl)methyl)-1-thioxoisoindolin-2-yl)piperidine-2,6-dione] | – | 60 to 80% | 80 to 100%
23 | O=C1CCC(N2Cc3c(CN4CCC(c5noc6ccccc56)CC4)cccc3C2=S)C(=O)N1 (stereo not shown) [GT-08816, 3-(4-((4-(benzo[d]isoxazol-3-yl)piperidin-1-yl)methyl)-1-thioxoisoindolin-2-yl)piperidine-2,6-dione] | – | 60 to 80% | 80 to 100%
24 | O=C1CCC(N2Cc3cc(CN4CCC(N5C(=O)COc6cc(F)ccc65)CC4)ccc3C2=S)C(=O)N1 (stereo not shown) [GT-09273, 3-(5-((4-(7-fluoro-3-oxo-2,3-dihydro-4H-benzo[b][1,4]oxazin-4-yl)piperidin-1-yl)methyl)-1-thioxoisoindolin-2-yl)piperidine-2,6-dione] | – | 60 to 80% | 80 to 100%
25 | O=C1CCC(N2Cc3cc(CN4CCN(c5nc6c(c(N7CCOCC7)n5)SCC6)CC4)ccc3C2=S)C(=O)N1 (stereo not shown) [GT-09330, 3-(5-((4-(4-morpholino-6,7-dihydrothieno[3,2-d]pyrimidin-2-yl)piperazin-1-yl)methyl)-1-thioxoisoindolin-2-yl)piperidine-2,6-dione] | – | 60 to 80% | 80 to 100%
26 | Cc1sc2ncnc(N3CCN(Cc4ccc5c(c4)CN(C4CCC(=O)NC4=O)C5=S)CC3)c2c1C (stereo not shown) [GT-09285, 3-(5-((4-(5,6-dimethylthieno[2,3-d]pyrimidin-4-yl)piperazin-1-yl)methyl)-1-thioxoisoindolin-2-yl)piperidine-2,6-dione] | – | 80 to 100% | 80 to 100%
27 | O=C1CCC(N2Cc3ccc(CN4CCc5sccc5C4)cc3C2=S)C(=O)N1 (stereo not shown) [GT-05039, 3-(6-((6,7-dihydrothieno[3,2-c]pyridin-5(4H)-yl)methyl)-1-thioxoisoindolin-2-yl)piperidine-2,6-dione] | 100 to 500 nM | – | –
28 | O=C1CCC(N2Cc3c(CN4CCN(C(c5ccccc5)c5ccccn5)CC4)cccc3C2=S)C(=O)N1 (stereo not shown) [GT-08192, 3-(4-((4-(phenyl(pyridin-2-yl)methyl)piperazin-1-yl)methyl)-1-thioxoisoindolin-2-yl)piperidine-2,6-dione] | – | 60 to 80% | 80 to 100%
29 | O=C1CCC(N2Cc3c(CN4CCN(c5ccnc(F)c5F)CC4)cccc3C2=S)C(=O)N1 (stereo not shown) [GT-08736, 3-(4-((4-(2,3-difluoropyridin-4-yl)piperazin-1-yl)methyl)-1-thioxoisoindolin-2-yl)piperidine-2,6-dione] | – | 60 to 80% | 80 to 100%
